# Source: EP1247803A2, “Indolinone compounds suitable for modulation of protein kinases” (Sugen, Inc., priority 1996, dated 1998)
# Columns and labels:
# EGFR = biological target: T1, EGFR (Homo sapiens, UniProt P00533); assay: EGFR ELISA assay (in vitro kinase activity, EGFR captured from A431 cell lysate); format: biochemical; design: concentration or dose not given beside the values
# T1 construct: Add 7 ug A431 cell lysate per well (EGFR source); endogenous in cells; host or cells: A431
# Summary of the method: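 EGFR from A431 lysate was captured on anti-EGFR antibody-coated plates and preincubated with compounds for 30 min. Autophosphorylation ran 5 min with 3 uM ATP and 5 mM MnCl2 (final), stopped with 20 mM EDTA. Phosphotyrosine was detected by anti-pTyr ELISA with ABTS/H2O2, read at 410 nm.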
# MET = MET biochemical kinase assay; design: species or system human; concentration or dose not given beside the values
# Summary of the method: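 Colorimetric signal from an HRP-linked anti-phosphotyrosine antibody with TMB measures phosphate incorporated into immobilised MET. The receptor is pulled from lysates by a polyclonal antibody against its cytoplasmic domain, then reacts in ATP- and metal-containing buffer with test compound.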
# PDGF-R = PDGF-R (Homo sapiens, UniProt P09619); assay: PDGF-R ELISA; format: cell-based
# Chain of PDGF-R (P09619 33-1106, species assumed): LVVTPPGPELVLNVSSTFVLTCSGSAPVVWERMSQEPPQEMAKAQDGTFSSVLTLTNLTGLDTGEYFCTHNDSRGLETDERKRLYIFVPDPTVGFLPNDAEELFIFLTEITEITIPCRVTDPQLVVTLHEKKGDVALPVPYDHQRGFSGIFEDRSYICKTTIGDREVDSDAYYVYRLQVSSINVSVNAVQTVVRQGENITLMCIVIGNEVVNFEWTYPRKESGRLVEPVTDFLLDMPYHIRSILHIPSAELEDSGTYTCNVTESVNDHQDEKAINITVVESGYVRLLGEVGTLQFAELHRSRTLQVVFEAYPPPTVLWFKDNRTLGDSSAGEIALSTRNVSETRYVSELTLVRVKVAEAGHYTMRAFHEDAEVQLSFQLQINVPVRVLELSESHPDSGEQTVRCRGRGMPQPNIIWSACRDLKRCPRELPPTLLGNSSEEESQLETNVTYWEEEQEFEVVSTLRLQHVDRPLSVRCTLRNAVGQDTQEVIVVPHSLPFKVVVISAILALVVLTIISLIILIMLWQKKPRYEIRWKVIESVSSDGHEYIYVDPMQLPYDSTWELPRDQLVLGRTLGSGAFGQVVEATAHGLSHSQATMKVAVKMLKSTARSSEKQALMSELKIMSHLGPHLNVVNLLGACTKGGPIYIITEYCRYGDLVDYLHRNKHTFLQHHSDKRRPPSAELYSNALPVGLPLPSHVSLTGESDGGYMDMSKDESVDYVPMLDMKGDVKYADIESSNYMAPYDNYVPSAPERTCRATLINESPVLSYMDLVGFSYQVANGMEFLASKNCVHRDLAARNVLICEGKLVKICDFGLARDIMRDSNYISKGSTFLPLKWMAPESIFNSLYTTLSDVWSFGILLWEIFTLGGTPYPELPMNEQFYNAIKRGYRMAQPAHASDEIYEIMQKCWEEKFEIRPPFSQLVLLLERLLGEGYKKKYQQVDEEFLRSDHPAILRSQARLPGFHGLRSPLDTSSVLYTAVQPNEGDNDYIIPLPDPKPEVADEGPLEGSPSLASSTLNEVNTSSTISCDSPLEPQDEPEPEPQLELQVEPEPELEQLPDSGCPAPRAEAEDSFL
# Text: A PDGF-R ELISA is described in International Patent Publication No. WO 96/40116, published December 19, 1996 by Tang et al.
# T1 sequence (P00533 25-1210): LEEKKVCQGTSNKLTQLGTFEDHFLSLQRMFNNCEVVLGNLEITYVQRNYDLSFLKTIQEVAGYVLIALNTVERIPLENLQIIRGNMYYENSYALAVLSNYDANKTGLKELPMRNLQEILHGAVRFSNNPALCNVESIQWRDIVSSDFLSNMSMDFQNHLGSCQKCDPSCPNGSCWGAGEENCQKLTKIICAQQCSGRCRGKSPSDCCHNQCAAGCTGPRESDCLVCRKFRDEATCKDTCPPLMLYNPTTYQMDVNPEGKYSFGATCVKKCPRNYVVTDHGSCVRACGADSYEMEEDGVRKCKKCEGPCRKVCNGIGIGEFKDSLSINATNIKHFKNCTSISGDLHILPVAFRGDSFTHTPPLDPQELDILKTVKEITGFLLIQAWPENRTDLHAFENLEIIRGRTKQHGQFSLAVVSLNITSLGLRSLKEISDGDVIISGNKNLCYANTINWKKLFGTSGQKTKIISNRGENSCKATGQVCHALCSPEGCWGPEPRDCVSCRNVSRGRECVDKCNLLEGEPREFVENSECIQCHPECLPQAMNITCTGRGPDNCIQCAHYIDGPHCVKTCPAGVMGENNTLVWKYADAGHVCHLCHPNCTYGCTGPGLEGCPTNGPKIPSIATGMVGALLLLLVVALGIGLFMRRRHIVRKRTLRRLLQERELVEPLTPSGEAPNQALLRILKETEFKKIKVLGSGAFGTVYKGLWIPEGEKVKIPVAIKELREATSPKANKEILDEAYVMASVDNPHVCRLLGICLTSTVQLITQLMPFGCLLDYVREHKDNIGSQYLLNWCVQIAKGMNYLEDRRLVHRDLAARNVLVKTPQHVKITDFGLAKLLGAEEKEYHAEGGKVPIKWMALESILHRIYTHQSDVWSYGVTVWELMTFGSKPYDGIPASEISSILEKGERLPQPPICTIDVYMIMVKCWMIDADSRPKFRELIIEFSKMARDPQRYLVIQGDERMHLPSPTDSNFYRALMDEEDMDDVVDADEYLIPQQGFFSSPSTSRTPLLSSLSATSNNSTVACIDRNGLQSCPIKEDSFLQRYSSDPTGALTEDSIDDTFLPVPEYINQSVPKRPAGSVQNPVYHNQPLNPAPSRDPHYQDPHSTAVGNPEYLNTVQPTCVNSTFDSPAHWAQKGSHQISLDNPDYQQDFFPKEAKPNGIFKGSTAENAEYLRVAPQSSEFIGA
SMILES,Biochem EGFR %Inhibition (EGFR),Met Kinase % Inhibition (MET),PDGF Kinase %Inhibition (PDGF-R)
O=C1Nc2ccc(S(=O)(=O)N3CCOCC3)cc2C1=Cc1c[nH]cn1 [10725/F11],20.8%,25.7%,20.3%
O=C1Nc2ccc(CCCl)cc2C1=Cc1sccc1Br [10725/G02],-20.5%,30.8%,-11.8%
COc1ccc(Br)c(C=C2C(=O)Nc3ccc(CCCl)cc32)c1O [10725/G03],-2.5%,58.6%,-6.5%
Cc1ccc(C=C2C(=O)Nc3ccc(CCCl)cc32)o1 [10725/G04],-12.3%,47.1%,-8.9%
Cc1cc(C=C2C(=O)Nc3ccc(CCCl)cc32)[nH]n1 [10725/G05],68.7%,15.6%,7.4%
COc1cc(C)cc(O)c1C=C1C(=O)Nc2ccc(CCCl)cc21 [10725/G06],-19.9%,35.8%,27.5%
O=CN1CCN(c2ccc(C=C3C(=O)Nc4ccc(CCCl)cc43)cc2)CC1 [10725/G07],-25.8%,39.7%,23.7%
O=C1Nc2ccc(CCCl)cc2C1=Cc1ccc(N2CCOCC2)cc1 [10725/G08],-13.7%,47.3%,8.3%
COC(=O)Cc1c(Cl)[nH]c(C=C2C(=O)Nc3ccc(CCCl)cc32)c1C(=O)OC [10725/G09],6.5%,4.7%,43.8%
O=C1Nc2ccc(CCCl)cc2C1=Cc1c(Br)cnn1-c1ccc(Cl)cc1 [10725/G10],17.8%,27.7%,44.7%
O=C1Nc2ccc(CCCl)cc2C1=Cc1c[nH]cn1 [10725/G11],-32.4%,25.7%,22.2%
CCOC(=O)c1[nH]c(C=C2C(=O)Nc3c(Br)cc(Br)cc32)c(C(=O)OC)c1C [10726/A03],-12.5%,70.1%,4.3%
Cc1cc(C=C2C(=O)Nc3c(Br)cc(Br)cc32)cc(C(C)(C)C)c1O [10726/A04],40.8%,85.7%,44.2%
O=C1Nc2c(Br)cc(Br)cc2C1=Cc1ccc(Br)o1 [10726/A05],-28.4%,75.2%,22.1%
Cc1cn(C)cc1C=C1C(=O)Nc2c(Br)cc(Br)cc21 [10726/A06],0.2%,54.7%,22.1%
O=C1Nc2c(Br)cc(Br)cc2C1=Cc1cc(O)c2c(c1O)CCCC2 [10726/A07],88.7%,101.4%,-36.8%
O=C1Nc2ccc(F)cc2C1=C1C(=O)Nc2c(Br)cc(Br)cc21 [10726/A08],-28.4%,63.1%,10.7%
O=C1Nc2ccccc2C1=C1C(=O)Nc2c(Br)cc(Br)cc21 [10726/A09],-6.3%,70.8%,16.4%
CCc1ccc(C=C2C(=O)Nc3c(Br)cc(Br)cc32)s1 [10726/A10],26.5%,58.9%,8.1%
COc1ccc(C=C2C(=O)Nc3c(Br)cc(Br)cc32)cc1 [10726/A11],6.2%,70.8%,23.3%
CCOC(=O)c1[nH]c(C=C2C(=O)Nc3ccc(I)cc32)c(C(=O)OC)c1C [10726/B03],3.5%,81.1%,16.4%
